Laboratory results from ChEMBL document CHEMBL1201862, “PubChem BioAssay data set” (2004).
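Test compounds were applied to cells in 96-well plates for 48 hours at 5 doses. GI50: concentration for 50% inhibition of growth.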 Calls of active or inactive are those of the source. Rule as the data show it: active = GI50 up to about 1.1 µM and inactive = higher.

Key:
Assay in all cases: NCI tumour cell line growth inhibition, 48 h
786-0 = test system: 786-0
A498 = test system: A498
A549 = test system: A549
ACHN = test system: ACHN
CAKI-1 = test system: CAKI-1
CCRF-CEM = test system: CCRF-CEM
COLO 205 = test system: COLO 205
DLD-1 = test system: DLD-1
DMS-114 = test system: DMS-114
DMS-273 = test system: DMS-273
EKVX = test system: EKVX
HCC 2998 = test system: HCC 2998
HCT-116 = test system: HCT-116
HL-60 = test system: HL-60
HOP-62 = test system: HOP-62
HOP-92 = test system: HOP-92
K562 = test system: K562
KM-20L2 = test system: KM-20L2
KM12 = test system: KM12
LOX IMVI = test system: LOX IMVI
LXFL 529 = test system: LXFL 529
M14 = test system: M14
M19-MEL = test system: M19-MEL
MOLT-4 = test system: MOLT-4
NCI-H23 = test system: NCI-H23
NCI-H460 = test system: NCI-H460
NCI-H522 = test system: NCI-H522
OVCAR-3 = test system: OVCAR-3
OVCAR-4 = test system: OVCAR-4
OVCAR-8 = test system: OVCAR-8
RPMI-8226 = test system: RPMI-8226
RXF 393 = test system: RXF 393
SF-268 = test system: SF-268
SF-295 = test system: SF-295
SF-539 = test system: SF-539
SK-MEL-28 = test system: SK-MEL-28
SK-MEL-5 = test system: SK-MEL-5
SK-OV-3 = test system: SK-OV-3
SN12C = test system: SN12C
SNB-19 = test system: SNB-19
SNB-75 = test system: SNB-75
SNB-78 = test system: SNB-78
SR = test system: SR
SW-620 = test system: SW-620
TK-10 = test system: TK-10
U-251 = test system: U-251
UACC-257 = test system: UACC-257
UACC-62 = test system: UACC-62
UO-31 = test system: UO-31
BT-549 = test system: BT-549
DU-145 = test system: DU-145
HCT-15 = test system: HCT-15
HT-29 = test system: HT-29
Hs-578T = test system: Hs-578T
IGROV-1 = test system: IGROV-1
MCF7 = test system: MCF7
MDA-MB-231 = test system: MDA-MB-231
MDA-MB-435 = test system: MDA-MB-435
MDA-N = test system: MDA-N
Malme-3M = test system: Malme-3M
NCI-H226 = test system: NCI-H226
NCI/ADR-RES = test system: NCI/ADR-RES
OVCAR-5 = test system: OVCAR-5
PC-3 = test system: PC-3
SK-MEL-2 = test system: SK-MEL-2
T47D = test system: T47D

Measured: GI50

Cc1cc(C)n(CCNCCn2nc(C)cc2C)n1
inactive: 786-0 > 100 µM | A498 > 100 µM | A549 > 100 µM | ACHN > 100 µM | CAKI-1 > 100 µM | CCRF-CEM > 100 µM | COLO 205 > 100 µM | DLD-1 > 100 µM | DMS-114 > 100 µM | DMS-273 > 100 µM | EKVX > 100 µM | HCC 2998 > 100 µM | HCT-116 > 100 µM | HL-60 > 100 µM | HOP-62 > 100 µM | HOP-92 > 100 µM | K562 > 100 µM | KM-20L2 > 100 µM | KM12 > 100 µM | LOX IMVI > 100 µM | LXFL 529 > 100 µM | M14 > 100 µM | M19-MEL > 100 µM | MOLT-4 > 100 µM | NCI-H23 > 100 µM | NCI-H460 > 100 µM | NCI-H522 > 100 µM | OVCAR-3 > 100 µM | OVCAR-4 > 100 µM | OVCAR-8 > 100 µM | RPMI-8226 > 100 µM | RXF 393 > 100 µM | SF-268 > 100 µM | SF-295 > 100 µM | SF-539 > 100 µM | SK-MEL-28 91 µM | SK-MEL-5 > 100 µM | SK-OV-3 > 100 µM | SN12C > 100 µM | SNB-19 > 100 µM | SNB-75 > 100 µM | SNB-78 > 100 µM | SR > 100 µM | SW-620 > 100 µM | TK-10 > 100 µM | U-251 > 100 µM | UACC-257 > 100 µM | UACC-62 > 100 µM | UO-31 > 100 µM

C=C1CC2(C[C@@H](c3ccccc3)O[C@@H](c3ccccc3)C2)OC1=O (stereo partly drawn)
active: HL-60 0.44 µM | RPMI-8226 0.341 µM
2.54 µM: HCT-15
inactive: 786-0 2.59 µM | A498 9.95 µM | A549 5.89 µM | ACHN 2.88 µM | BT-549 1.76 µM | CAKI-1 1.97 µM | CCRF-CEM 1.71 µM | COLO 205 2.03 µM | DU-145 9.12 µM | EKVX 13 µM | HCC 2998 6.7 µM | HCT-116 1.9 µM | HOP-62 14.4 µM | HOP-92 5.22 µM | HT-29 2.92 µM | Hs-578T 2.31 µM | IGROV-1 2.71 µM | K562 2.22 µM | KM12 4.39 µM | LOX IMVI 1.25 µM | M14 1.77 µM | MCF7 2.13 µM | MDA-MB-231 2.15 µM | MDA-MB-435 2.99 µM | MDA-N 2.28 µM | MOLT-4 1.95 µM | Malme-3M 1.89 µM | NCI-H226 16 µM | NCI-H23 2.64 µM | NCI-H460 10.2 µM | NCI-H522 1.48 µM | NCI/ADR-RES 3.06 µM | OVCAR-3 2.36 µM | OVCAR-4 5.7 µM | OVCAR-5 13.3 µM | OVCAR-8 2.49 µM | PC-3 3.5 µM | RXF 393 1.94 µM | SF-268 7.31 µM | SF-295 13.6 µM | SF-539 1.92 µM | SK-MEL-28 1.86 µM | SK-MEL-2 3.98 µM | SK-MEL-5 3.01 µM | SK-OV-3 14.5 µM | SN12C 3.01 µM | SNB-19 15.2 µM | SNB-75 4.65 µM | SR 2.3 µM | SW-620 1.67 µM | T47D 1.85 µM | TK-10 1.8 µM | U-251 15.4 µM | UACC-257 3.35 µM | UACC-62 2.51 µM | UO-31 6.24 µM
